Legend:
Type in all cases: in vivo
rice (Oryza sativa) = assay: Test B flood test; details: for Plant response rating, Rice: Postemergence (flood test species)
Outline: (§1)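 Plants were grown to the 2-leaf stage before treatment with test chemical, then held in a greenhouse for twelve to sixteen days. Injury was visually rated against untreated controls on a 0–10 scale, where 0 is no effect and 10 is complete control.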

[1] = test system: smallflower flatsedge (Cyperus difformis); assay: Test B flood test; details: for Plant response rating, S. Flatsedge: Postemergence (flood test species)
Outline: as §1

[2] = test system: duck salad (Heteranthera limosa); assay: Test B flood test; details: for Plant response rating, Ducksalad: Postemergence (flood test species)
Outline: as §1

[3] = test system: bamyardgrass (Echinochloa crus-galli); assay: Test B flood test; details: for Plant response rating, Barnyardgrass: Postemergence (flood test species)
Outline: as §1

rape (Brassica napus) = assay: Test B pre-/postemergence; parameters: key: 0 is no effect; 10 is complete control
Outline: (§2)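 Seeds were planted and sprayed preemergence, while plants at 2 to 18 cm (1- to 4-leaf stage) were sprayed postemergence at the same time, with test chemical in a non-phytotoxic solvent mixture containing surfactant. After twelve to sixteen days in a greenhouse, injury was rated visually against untreated controls on a 0–10 scale.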

[4] = test system: crabgrass (Digitaria sanguinalis); assay: Test B pre-/postemergence; parameters: key: 0 is no effect; 10 is complete control
Outline: as §2

corn (Zea mays) = assay: Test B pre-/postemergence; parameters: key: 0 is no effect; 10 is complete control
Outline: as §2

[5] = test system: wheat (Triticum aestivum); assay: Test B pre-/postemergence; parameters: key: 0 is no effect; 10 is complete control
Outline: as §2

[6] = test system: giant foxtail (Setaria faberii); assay: Test B pre-/postemergence; parameters: key: 0 is no effect; 10 is complete control
Outline: as §2

[7] = test system: sugar beet (Beta vulgaris); assay: Test B pre-/postemergence; parameters: key: 0 is no effect; 10 is complete control
Outline: as §2

soybean (Glycine max) = assay: Test B pre-/postemergence; parameters: key: 0 is no effect; 10 is complete control
Outline: as §2

[8] = test system: velvetleaf (Abutilon theophrasti); assay: Test B pre-/postemergence; parameters: key: 0 is no effect; 10 is complete control
Outline: as §2

[9] = test system: bedstraw (Galium aparine); assay: Test B pre-/postemergence; parameters: key: 0 is no effect; 10 is complete control
Outline: as §2

[10] = test system: purple nutsedge (Cyperus rotundus); assay: Test B pre-/postemergence; parameters: key: 0 is no effect; 10 is complete control
Outline: as §2

wild oat (Avena fatua) = assay: Test B pre-/postemergence; parameters: key: 0 is no effect; 10 is complete control
Outline: as §2

[11] = Rate 62 g/ha, Postemergence (flood test)
[12] = Rate 125 g/ha, Postemergence section (flood test species)
[13] = Preemergence, Rate 62 g/ha, scale of 0 to 10

With `Cc1cnc(-c2ccc(C(F)(F)F)cc2)nc1C(=O)c1cccc(C(F)(F)F)c1` [Compound 73] the “Rice plant response rating” value (rice (Oryza sativa); [11]) was 5, the “Rice plant response rating” value (rice (Oryza sativa); [12]) was 5 and the “Plant response rating, Rice” value (rice (Oryza sativa); Rate 250 g/ha) was 6. The “Plant response rating, Rice” value (rice (Oryza sativa); Rate 500 g/ha) was 3, the “S. Flatsedge plant response rating” value [1, 11] was 3 and the “S. Flatsedge plant response rating” value [1, 12] was 3. For the same molecule, the “Plant response rating, S. Flatsedge” value ([1]; Rate 250 g/ha) was 6, the “Plant response rating, S. Flatsedge” value ([1]; Rate 500 g/ha) was 3 and the “Ducksalad plant response rating” value [2, 11] was 1. For the same molecule, the “Ducksalad plant response rating” value [2, 12] was 1, the “Plant response rating, Ducksalad” value ([2]; Rate 250 g/ha) was 2 and the “Plant response rating, Ducksalad” value ([2]; Rate 500 g/ha) was 3. For the same molecule, the “Barnyardgrass plant response rating” value [3, 11] was 4, the “Barnyardgrass plant response rating” value [3, 12] was 5 and the “Plant response rating, Barnyardgrass” value ([3]; Rate 250 g/ha) was 6. The “Plant response rating, Barnyardgrass” value ([3]; Rate 500 g/ha) was 4, the “Plant response rating, Rape” value (rape (Brassica napus); [13]) was 2 and the “Rape plant response rating” value (rape (Brassica napus); Rate 62 g/ha, Postemergence) was 10. For the same molecule, the “Rape plant response rating” value (rape (Brassica napus); Rate 125 g/ha, Postemergence) was 10, the “Plant response rating, Rape” value (rape (Brassica napus); Rate 125 g/ha, Preemergence) was 6 and the “Plant response rating, Rape” value (rape (Brassica napus); Rate 250 g/ha, Postemergence) was 10. The “Plant response rating, Rape” value (rape (Brassica napus); Rate 250 g/ha, Preemergence) was 6, the “Plant response rating, Rape” value (rape (Brassica napus); Rate 500 g/ha, Postemergence) was 10 and the “Plant response rating, Rape” value (rape (Brassica napus); Rate 500 g/ha, Preemergence) was 10. For the same molecule, the “Plant response rating, Crabgrass” value [4, 13] was 10, the “Crabgrass plant response rating” value ([4]; Rate 62 g/ha, Postemergence) was 7 and the “Crabgrass plant response rating” value ([4]; Rate 125 g/ha, Postemergence) was 9. The “Plant response rating, Crabgrass” value ([4]; Rate 125 g/ha, Preemergence) was 10, the “Plant response rating, Crabgrass” value ([4]; Rate 250 g/ha, Postemergence) was 9 and the “Plant response rating, Crabgrass” value ([4]; Rate 250 g/ha, Preemergence) was 10. The “Plant response rating, Crabgrass” value ([4]; Rate 500 g/ha, Postemergence) was 9, the “Plant response rating, Crabgrass” value ([4]; Rate 500 g/ha, Preemergence) was 10 and the “Plant response rating, Corn” value (corn (Zea mays); [13]) was 1. For the same molecule, the “Corn plant response rating” value (corn (Zea mays); Rate 62 g/ha, Postemergence) was 2, the “Corn plant response rating” value (corn (Zea mays); Rate 125 g/ha, Postemergence) was 3 and the “Plant response rating, Corn” value (corn (Zea mays); Rate 125 g/ha, Preemergence) was 1. For the same molecule, the “Plant response rating, Corn” value (corn (Zea mays); Rate 250 g/ha, Postemergence) was 3, the “Plant response rating, Corn” value (corn (Zea mays); Rate 250 g/ha, Preemergence) was 2 and the “Plant response rating, Corn” value (corn (Zea mays); Rate 500 g/ha, Postemergence) was 3. The “Plant response rating, Corn” value (corn (Zea mays); Rate 500 g/ha, Preemergence) was 2, the “Plant response rating, Wheat” value [5, 13] was 2 and the “Wheat plant response rating” value ([5]; Rate 62 g/ha, Postemergence) was 4. The “Wheat plant response rating” value ([5]; Rate 125 g/ha, Postemergence) was 4, the “Plant response rating, Wheat” value ([5]; Rate 125 g/ha, Preemergence) was 4 and the “Plant response rating, Wheat” value ([5]; Rate 250 g/ha, Postemergence) was 5. For the same molecule, the “Plant response rating, Wheat” value ([5]; Rate 250 g/ha, Preemergence) was 7, the “Plant response rating, Wheat” value ([5]; Rate 500 g/ha, Postemergence) was 6 and the “Plant response rating, Wheat” value ([5]; Rate 500 g/ha, Preemergence) was 9. The “Plant response rating, Giant foxtail” value [6, 13] was 10, the “Giant foxtail plant response rating” value ([6]; Rate 62 g/ha, Postemergence) was 6 and the “Giant foxtail plant response rating” value ([6]; Rate 125 g/ha, Postemergence) was 8. The “Plant response rating, Giant foxtail” value ([6]; Rate 125 g/ha, Preemergence) was 10, the “Plant response rating, Giant foxtail” value ([6]; Rate 250 g/ha, Postemergence) was 9 and the “Plant response rating, Giant foxtail” value ([6]; Rate 250 g/ha, Preemergence) was 10. For the same molecule, the “Plant response rating, Giant foxtail” value ([6]; Rate 500 g/ha, Postemergence) was 9, the “Plant response rating, Giant foxtail” value ([6]; Rate 500 g/ha, Preemergence) was 10 and the “Plant response rating, Sugarbeets” value [7, 13] was 9. The “Sugarbeets plant response rating” value ([7]; Rate 62 g/ha, Postemergence) was 10, the “Sugarbeets plant response rating” value ([7]; Rate 125 g/ha, Postemergence) was 10 and the “Plant response rating, Sugarbeets” value ([7]; Rate 125 g/ha, Preemergence) was 9. For the same molecule, the “Plant response rating, Sugarbeets” value ([7]; Rate 250 g/ha, Postemergence) was 9, the “Plant response rating, Sugarbeets” value ([7]; Rate 250 g/ha, Preemergence) was 10 and the “Plant response rating, Sugarbeets” value ([7]; Rate 500 g/ha, Postemergence) was 9. The “Plant response rating, Sugarbeets” value ([7]; Rate 500 g/ha, Preemergence) was 10, the “Plant response rating, Soybean” value (soybean (Glycine max); [13]) was 0 and the “Soybean plant response rating” value (soybean (Glycine max); Rate 62 g/ha, Postemergence) was 8. For the same molecule, the “Soybean plant response rating” value (soybean (Glycine max); Rate 125 g/ha, Postemergence) was 9, the “Plant response rating, Soybean” value (soybean (Glycine max); Rate 125 g/ha, Preemergence) was 1 and the “Plant response rating, Soybean” value (soybean (Glycine max); Rate 250 g/ha, Postemergence) was 9. For the same molecule, the “Plant response rating, Soybean” value (soybean (Glycine max); Rate 250 g/ha, Preemergence) was 1, the “Plant response rating, Soybean” value (soybean (Glycine max); Rate 500 g/ha, Postemergence) was 6 and the “Plant response rating, Soybean” value (soybean (Glycine max); Rate 500 g/ha, Preemergence) was 2. The “Plant response rating, Velvetleaf” value [8, 13] was 2, the “Velvetleaf plant response rating” value ([8]; Rate 62 g/ha, Postemergence) was 9 and the “Velvetleaf plant response rating” value ([8]; Rate 125 g/ha, Postemergence) was 9. The “Plant response rating, Velvetleaf” value ([8]; Rate 125 g/ha, Preemergence) was 4, the “Plant response rating, Velvetleaf” value ([8]; Rate 250 g/ha, Postemergence) was 9 and the “Plant response rating, Velvetleaf” value ([8]; Rate 250 g/ha, Preemergence) was 7. The “Plant response rating, Velvetleaf” value ([8]; Rate 500 g/ha, Postemergence) was 10, the “Plant response rating, Velvetleaf” value ([8]; Rate 500 g/ha, Preemergence) was 8 and the “Plant response rating, Bedstraw” value [9, 13] was 2. The “Bedstraw plant response rating” value ([9]; Rate 62 g/ha, Postemergence) was 9, the “Bedstraw plant response rating” value ([9]; Rate 125 g/ha, Postemergence) was 9 and the “Plant response rating, Bedstraw” value ([9]; Rate 125 g/ha, Preemergence) was 8. For the same molecule, the “Plant response rating, Bedstraw” value ([9]; Rate 250 g/ha, Postemergence) was 9, the “Plant response rating, Bedstraw” value ([9]; Rate 250 g/ha, Preemergence) was 9 and the “Plant response rating, Bedstraw” value ([9]; Rate 500 g/ha, Postemergence) was 9. The “Plant response rating, Bedstraw” value ([9]; Rate 500 g/ha, Preemergence) was 10, the “Plant response rating, Nutsedge” value [10, 13] was 0 and the “Nutsedge plant response rating” value ([10]; Rate 62 g/ha, Postemergence) was 0. The “Nutsedge plant response rating” value ([10]; Rate 125 g/ha, Postemergence) was 0, the “Plant response rating, Nutsedge” value ([10]; Rate 125 g/ha, Preemergence) was 0 and the “Plant response rating, Nutsedge” value ([10]; Rate 250 g/ha, Postemergence) was 2. The “Plant response rating, Nutsedge” value ([10]; Rate 250 g/ha, Preemergence) was 0, the “Plant response rating, Nutsedge” value ([10]; Rate 500 g/ha, Preemergence) was 0 and the “Plant response rating, Wild oats” value (wild oat (Avena fatua); [13]) was 7. For the same molecule, the “Wild oats plant response rating” value (wild oat (Avena fatua); Rate 62 g/ha, Postemergence) was 6, the “Wild oats plant response rating” value (wild oat (Avena fatua); Rate 125 g/ha, Postemergence) was 7 and the “Plant response rating, Wild oats” value (wild oat (Avena fatua); Rate 125 g/ha, Preemergence) was 9. For the same molecule, the “Plant response rating, Wild oats” value (wild oat (Avena fatua); Rate 250 g/ha, Postemergence) was 9, the “Plant response rating, Wild oats” value (wild oat (Avena fatua); Rate 250 g/ha, Preemergence) was 10 and the “Plant response rating, Wild oats” value (wild oat (Avena fatua); Rate 500 g/ha, Postemergence) was 9. The “Plant response rating, Wild oats” value (wild oat (Avena fatua); Rate 500 g/ha, Preemergence) was 10.

Reference: patent US6525001B1, “Substituted pyrimidine and pyridine herbicides” (Mid-American Commercialization Corporation, priority 1997, dated 2003)
